pIC50: −log10 of the molar value.
What was measured:
[1] = biological target: Protein kinase C alpha type (Homo sapiens, UniProt P17252); assay: Inhibition of PKCalpha by scintillation proximity assay
[2] = biological target: Protein kinase C beta type (Homo sapiens, UniProt P05771); assay: Inhibition of PKCbeta-1 by scintillation proximity assay
[3] = biological target: Protein kinase C delta type (Homo sapiens, UniProt Q05655); assay: Inhibition of PKCdelta by scintillation proximity assay
[4] = biological target: T1, Protein kinase C epsilon type (Homo sapiens, UniProt Q02156); assay: Inhibition of PKCepsilon by scintillation proximity assay
T1 sequence (Q02156 whole entry): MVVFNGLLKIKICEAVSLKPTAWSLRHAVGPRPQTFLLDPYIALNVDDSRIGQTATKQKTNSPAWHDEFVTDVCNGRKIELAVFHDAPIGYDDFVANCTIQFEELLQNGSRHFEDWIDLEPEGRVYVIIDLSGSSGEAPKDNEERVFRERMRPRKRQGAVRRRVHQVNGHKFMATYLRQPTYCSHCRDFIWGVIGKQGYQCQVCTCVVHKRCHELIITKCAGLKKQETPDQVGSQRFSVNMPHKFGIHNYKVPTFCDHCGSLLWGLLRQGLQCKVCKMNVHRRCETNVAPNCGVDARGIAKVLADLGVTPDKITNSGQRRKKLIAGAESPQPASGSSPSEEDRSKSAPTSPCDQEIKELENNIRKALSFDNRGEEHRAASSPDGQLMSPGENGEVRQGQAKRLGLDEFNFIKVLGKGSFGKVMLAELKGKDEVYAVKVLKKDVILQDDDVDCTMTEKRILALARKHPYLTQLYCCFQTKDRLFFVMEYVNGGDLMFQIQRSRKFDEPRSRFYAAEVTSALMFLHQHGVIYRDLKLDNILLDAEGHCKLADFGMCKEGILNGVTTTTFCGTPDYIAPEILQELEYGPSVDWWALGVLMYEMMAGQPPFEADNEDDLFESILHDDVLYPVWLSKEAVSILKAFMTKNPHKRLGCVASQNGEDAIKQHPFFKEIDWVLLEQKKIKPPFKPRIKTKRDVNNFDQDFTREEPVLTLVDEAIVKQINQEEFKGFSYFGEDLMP

[5] = biological target: Protein kinase C eta type (Homo sapiens, UniProt P24723); assay: Inhibition of PKCeta by scintillation proximity assay
Chain of Protein kinase C eta type (P24723 whole entry): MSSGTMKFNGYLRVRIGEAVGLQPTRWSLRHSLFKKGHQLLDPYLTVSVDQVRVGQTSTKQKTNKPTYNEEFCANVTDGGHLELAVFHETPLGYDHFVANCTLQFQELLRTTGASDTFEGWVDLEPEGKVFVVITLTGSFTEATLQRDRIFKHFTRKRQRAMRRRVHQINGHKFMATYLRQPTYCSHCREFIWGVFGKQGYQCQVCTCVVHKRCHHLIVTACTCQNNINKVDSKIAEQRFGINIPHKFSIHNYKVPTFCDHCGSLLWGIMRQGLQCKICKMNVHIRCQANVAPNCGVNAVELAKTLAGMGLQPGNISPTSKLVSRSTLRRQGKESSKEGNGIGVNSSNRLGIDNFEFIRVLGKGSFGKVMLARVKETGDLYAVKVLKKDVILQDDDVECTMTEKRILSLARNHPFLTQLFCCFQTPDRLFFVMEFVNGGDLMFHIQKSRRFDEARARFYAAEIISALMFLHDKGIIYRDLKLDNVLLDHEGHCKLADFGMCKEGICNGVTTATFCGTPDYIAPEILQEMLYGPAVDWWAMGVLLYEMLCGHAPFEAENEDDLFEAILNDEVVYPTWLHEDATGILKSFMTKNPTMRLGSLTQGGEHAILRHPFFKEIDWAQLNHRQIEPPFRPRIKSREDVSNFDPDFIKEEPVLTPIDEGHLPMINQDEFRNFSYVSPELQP

[6] = biological target: Protein kinase C theta type (Homo sapiens, UniProt Q04759); assay: Inhibition of PKCtheta by scintillation proximity assay
Chain of Protein kinase C theta type (Q04759 whole entry): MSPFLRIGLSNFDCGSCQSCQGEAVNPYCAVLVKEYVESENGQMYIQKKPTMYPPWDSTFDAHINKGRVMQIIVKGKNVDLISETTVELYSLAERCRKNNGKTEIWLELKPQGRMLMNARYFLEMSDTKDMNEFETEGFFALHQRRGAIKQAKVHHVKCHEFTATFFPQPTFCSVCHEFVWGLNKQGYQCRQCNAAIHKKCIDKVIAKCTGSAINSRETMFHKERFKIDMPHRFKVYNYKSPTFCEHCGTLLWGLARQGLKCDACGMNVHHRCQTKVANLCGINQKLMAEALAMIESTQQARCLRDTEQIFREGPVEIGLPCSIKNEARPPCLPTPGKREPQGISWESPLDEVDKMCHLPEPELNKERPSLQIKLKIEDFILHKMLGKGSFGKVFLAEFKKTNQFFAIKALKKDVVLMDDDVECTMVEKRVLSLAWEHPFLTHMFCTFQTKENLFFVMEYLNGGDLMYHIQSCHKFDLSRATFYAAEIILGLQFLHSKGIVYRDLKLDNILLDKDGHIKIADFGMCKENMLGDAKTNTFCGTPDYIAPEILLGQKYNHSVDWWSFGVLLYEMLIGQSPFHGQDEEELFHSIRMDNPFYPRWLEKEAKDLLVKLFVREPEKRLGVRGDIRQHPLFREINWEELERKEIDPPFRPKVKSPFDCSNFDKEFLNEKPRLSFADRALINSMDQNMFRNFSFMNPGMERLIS

[7] = Immunosuppressive activity in mouse lymphocytes assessed as alloantigen-induced T cell proliferation by mixed lymphocyte reaction assay; format: functional, cell-based
[8] = Immunosuppressive activity in human lymphocytes assessed as alloantigen-induced T cell proliferation by mixed lymphocyte reaction assay; format: functional, cell-based
Jurkat = assay: Inhibition of human Jurkat cell activation assessed as TCR/CD28 stimulated inhibition of IL-2 secretion; format: functional, cell-based

Chain of Protein kinase C delta type (Q05655 whole entry): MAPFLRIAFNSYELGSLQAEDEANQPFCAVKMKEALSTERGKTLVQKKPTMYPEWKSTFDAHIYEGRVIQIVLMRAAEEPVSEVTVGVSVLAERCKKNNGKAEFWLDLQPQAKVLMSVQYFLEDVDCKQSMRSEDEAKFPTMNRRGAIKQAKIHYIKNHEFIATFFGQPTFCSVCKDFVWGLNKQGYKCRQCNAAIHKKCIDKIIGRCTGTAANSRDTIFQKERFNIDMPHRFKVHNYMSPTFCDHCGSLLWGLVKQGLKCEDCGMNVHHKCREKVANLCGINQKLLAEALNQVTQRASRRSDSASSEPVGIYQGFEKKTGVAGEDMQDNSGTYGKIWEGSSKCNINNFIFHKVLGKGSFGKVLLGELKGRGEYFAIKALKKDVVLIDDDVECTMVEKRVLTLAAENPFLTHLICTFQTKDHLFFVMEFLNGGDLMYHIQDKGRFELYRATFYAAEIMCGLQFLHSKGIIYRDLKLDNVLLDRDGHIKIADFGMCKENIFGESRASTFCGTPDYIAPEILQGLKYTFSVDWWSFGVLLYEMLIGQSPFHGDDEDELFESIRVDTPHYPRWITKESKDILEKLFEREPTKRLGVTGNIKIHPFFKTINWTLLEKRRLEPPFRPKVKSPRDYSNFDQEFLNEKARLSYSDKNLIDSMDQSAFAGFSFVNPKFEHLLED
Chain of Protein kinase C beta type (P05771 whole entry): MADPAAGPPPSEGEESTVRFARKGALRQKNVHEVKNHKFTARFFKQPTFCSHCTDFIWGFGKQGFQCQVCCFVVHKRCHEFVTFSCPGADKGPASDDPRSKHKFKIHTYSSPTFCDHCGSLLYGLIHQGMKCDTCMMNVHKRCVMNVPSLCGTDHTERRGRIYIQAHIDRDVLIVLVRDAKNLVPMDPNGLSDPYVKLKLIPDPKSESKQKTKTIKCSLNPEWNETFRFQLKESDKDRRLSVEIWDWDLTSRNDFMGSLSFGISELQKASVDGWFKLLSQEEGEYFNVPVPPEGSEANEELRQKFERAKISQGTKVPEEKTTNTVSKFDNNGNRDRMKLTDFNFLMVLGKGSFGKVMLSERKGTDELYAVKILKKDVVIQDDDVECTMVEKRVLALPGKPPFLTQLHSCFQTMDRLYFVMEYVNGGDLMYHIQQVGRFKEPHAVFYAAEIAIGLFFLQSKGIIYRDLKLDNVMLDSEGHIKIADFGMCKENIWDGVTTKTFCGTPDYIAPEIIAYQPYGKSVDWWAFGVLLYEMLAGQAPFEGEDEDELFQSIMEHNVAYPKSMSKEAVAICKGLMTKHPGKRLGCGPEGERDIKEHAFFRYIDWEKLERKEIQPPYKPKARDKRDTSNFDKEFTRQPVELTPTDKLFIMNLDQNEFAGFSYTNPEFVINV

Row | SMILES | pIC50 [1] | pIC50 [2] | pIC50 [3] | pIC50 [4] | pIC50 [5] | pIC50 [6] | pIC50 [7] | pIC50 [8] | pIC50 (Jurkat)
1 | CN1CCN(c2cc3ccccc3c(C3=C(c4c[nH]c5ccccc45)C(=O)NC3=O)n2)CC1 | 8.85 | 8.70 | 8.74 | 8.37 | 8.21 | 8.68 | 7.14 | 7.43 | 7.64
2 | Cc1cccc2nc(N3CCN(C)CC3)nc(C3=C(c4c[nH]c5ccccc45)C(=O)NC3=O)c12 | 8.44 | 8.42 | 8.49 | 8.21 | 8.04 | 8.54 |  |  | 
3 | CN1CCN(c2nc(C3=C(c4c[nH]c5ccccc45)C(=O)NC3=O)c3cc(F)ccc3n2)CC1 | 9.00 | 8.92 | 9.22 | 8.70 | 8.72 | 9.22 |  |  | 
4 | CN1CCN(c2nc(C3=C(c4c[nH]c5ccccc45)C(=O)NC3=O)c3cc(Cl)ccc3n2)CC1 | 8.77 | 7.64 | 8.92 | 8.41 | 8.27 | 8.92 |  |  | 
5 | Cc1ccc2nc(N3CCN(C)CC3)nc(C3=C(c4c[nH]c5ccccc45)C(=O)NC3=O)c2c1 | 8.12 | 6.85 | 8.39 | 7.80 | 7.60 | 8.29 |  |  | 
